Experimental data taken from PMC10341658, “In Silico Screening and Anticancer-Apoptotic Evaluation of Newly Synthesized Thienopyrimidine/Sulfonamide Hybrids” (International Journal of Molecular Sciences, 2023).

Tests used:
Caspase-3 = Caspase-3 colorimetric activity assay (Ac-DEVD-pNA) in MDA-MB-231 cells; type: cell-based, human; conditions: predetermined IC50 of compound, 24 h
Protocol: To further explore the cytotoxicity of the prepared hybrids, their influence on Caspase-3 activity was examined. MDA-MB-231 cells were incubated with the predetermined IC50s of tested compounds for a duration of 24 h.
Caspase-3 activity was assessed with a colorimetric assay based on the hydrolysis of acetyl–Asp–Glu–Val–Asp p-nitroanilide (Ac-DEVD-pNA) by Caspase-3 and releasing p-nitroaniline (pNA). MDA-MB-231 cell lysates (100 ng/mL) were diluted and subjected to analysis via Caspase-3 Colorimetric Assay Kit (Sigma-Aldrich, Saint Louis, MO, USA) based on the protocol of the manufacturer. The reaction for color development was held at 37 °C for 2 h, and the value of OD405 was determined using a Varioskan TM LUX multimode microplate reader (Thermo Scientific, Waltham, MA, USA). Each caspase-3 activity was expressed as a value of OD405.

MDA-MB-231 cells = assay: Annexin V-FITC/PI flow cytometric apoptosis analysis; type: cell-based, human; conditions: MDA-MB-231, Annexin V-FITC/PI, predetermined IC50
Protocol: Apoptosis and necrosis are two routes that make up the overall division of the cell death pathway carried out by anticancer agents. A double labeling flow cytometry assay using Annexin V-FITC/propidium iodide was performed to identify which mechanism, necrosis, or apoptosis is responsible for cell death.
Apoptosis was detected after 48 h of cell culture using V-FITC apoptosis detection kit (BD Pharmingen TM, Franklin Lakes, NJ, USA). […] After treatment, cells were collected, washed with ice-cold PBS and centrifuged at 200× g for 5 min. The cell pellet was suspended in 200 μL of annexin V-FITC/PI solution for 15 min in the dark. The stained and Annexine V propidium iodide negative cells were evaluated via CytoFLEX flow cytometry (Beckman Coulter, Brea, CA, USA). Ten thousand cells (gated events) were captured for each sample. The mean fluorescence intensity was analyzed with Cytoexpert (Beckman Coulter).

MCF-7 = assay: MTT anti-proliferative assay, MCF-7; type: cell-based, human; conditions: for IC50: 72 h of exposure, MTT, mean ± S.D. of three observations; for selectivity index (SI) MCF-7: IC50 MCF 10A/IC50 MCF-7, 72 h of exposure
Protocol: (§1) The cytotoxic effect of the synthesized compounds was estimated against human breast cancer cell lines (MCF-7 and MDA-MB231).
(§2) MTT (3-[4,5-dimethylthiazol-2-yl]-2,5 diphenyltetrazolium bromide) assay was used to study the anticancer activity of all derivatives against breast cancer cells MCF-7and MDAMB231 (obtained from ATCC, Manassas, VA, USA). […] Briefly, cells plated onto 96-well plates (5000 cells/well) were allowed to adhere and form a semi-confluent monolayer. After 24 h, the cells were treated with different concentrations of derivatives (0–100 µM) for 72 h. After the exposure, cytotoxicity was assessed following the MTT Assay Kit protocol (Abcam, Cambridge, UK) as reported earlier.

[1] = system: MCF-10A (Non-Tumorigenic Cells); assay: MTT cytotoxicity on non-tumorigenic MCF-10A cells; type: cell-based; conditions: Homo sapiens, 72 h of exposure, mean ± S.D. of three observations
Protocol: as §2, with “After 24 h, the cells were treated with different concentrations of derivatives (0–100 µM) for 72 h.” left out
The selectivity ratio in non-cancerous cells (MCF10A) versus cancer cells (MCF-7 and MDAmb231) was calculated as reported in [26, 27] using the following equation: SI = IC50 of normal cells/IC50 of cancer cells.

FGFR-1 = biological target: T1, FGFR-1 (Homo sapiens, UniProt P11362); assay: FGFR-1 inhibitory activity (FGFR-1 ELISA Kit, MDA-MB-231 cell lysates); type: biochemical
T1 construct: host or cells: MDA-MB-231
Protocol: To determine basal FGFR-1 activity, a FGFR-1 ELISA Kit was used according to the protocol of the manufacturer (G-Biosciences, Saint Louis, MO, USA). […] After 90 min of incubation at 37 °C, 100 μL Biotinylated Detection Antibody was added and incubated for 60 min. After washing twice each with washing buffer, 100 μL ELISA Detection Reagent was added to each well and incubated for 30 min. After washing, 90 μL of Detection Substrate (TMB) was added to visualize the enzymatic reaction. TMB was catalyzed to produce a blue color that changed into yellow after adding 50 μL of acidic stop solution. The density of yellow is directly proportional to the concentration of FGFR-1 captured on the plate using a Varioskan TM LUX multimode microplate reader (Thermo Scientific, Waltham, MA, USA).

MDA-MB-231 = assay: MTT anti-proliferative assay, MDA-MB-231; type: cell-based, human; conditions: for IC50: Homo sapiens, MDA-MB-231, 72 h of exposure, MTT, mean ± S.D. of three observations; for selectivity index (SI) MDA-MB231: IC50 MCF 10A/IC50 MDA-MB231, 72 h of exposure
Protocol: as §1, §2

T1 sequence (P11362 22-822): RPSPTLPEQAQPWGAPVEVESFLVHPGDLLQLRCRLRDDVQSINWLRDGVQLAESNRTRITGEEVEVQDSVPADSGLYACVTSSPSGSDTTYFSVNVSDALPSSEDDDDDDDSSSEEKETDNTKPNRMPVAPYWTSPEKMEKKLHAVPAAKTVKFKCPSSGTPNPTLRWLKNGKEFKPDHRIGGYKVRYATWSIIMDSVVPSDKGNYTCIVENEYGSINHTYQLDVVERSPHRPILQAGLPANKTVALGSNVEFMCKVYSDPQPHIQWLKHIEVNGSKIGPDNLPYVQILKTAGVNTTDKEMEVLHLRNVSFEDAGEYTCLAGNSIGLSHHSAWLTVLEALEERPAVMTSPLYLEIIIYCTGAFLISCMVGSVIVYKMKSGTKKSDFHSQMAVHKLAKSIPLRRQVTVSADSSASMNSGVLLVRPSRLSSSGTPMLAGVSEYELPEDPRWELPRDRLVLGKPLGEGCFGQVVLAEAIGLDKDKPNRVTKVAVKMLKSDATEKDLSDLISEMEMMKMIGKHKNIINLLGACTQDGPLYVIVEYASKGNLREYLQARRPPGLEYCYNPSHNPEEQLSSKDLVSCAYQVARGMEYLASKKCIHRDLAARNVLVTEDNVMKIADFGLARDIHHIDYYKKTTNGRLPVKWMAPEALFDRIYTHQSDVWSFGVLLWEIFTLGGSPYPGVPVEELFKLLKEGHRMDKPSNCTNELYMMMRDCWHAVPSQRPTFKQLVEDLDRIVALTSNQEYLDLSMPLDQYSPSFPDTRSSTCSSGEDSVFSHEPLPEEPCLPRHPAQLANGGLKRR

Structure (SMILES)	Caspase-3 activity fold change vs control cells (Caspase-3) [fold]	increase of population of late apoptotic cells (MDA-MB-231 cells) [fold]	increase of population of necrotic cells (MDA-MB-231 cells) [fold]	IC50 (MCF-7) [µM]	IC50 (MCF-7; Homo sapiens, MCF7, 72 h) [µM]	selectivity index (SI) MCF-7 (MCF-7)	IC50 [1] [µM]	IC50 (FGFR-1) [µM]	IC50 (MDA-MB-231) [µM]	selectivity index (SI) MDA-MB231 (MDA-MB-231)
CCOC(=O)c1sc2ncnc(Cl)c2c1C [Compound 3b]	2.3	4.8	5.5	9.74 ± 0.13	< 10	27.20	265 ± 4.2	179 ± 5.6	4.45 ± 0.31	59.45
N=C(N)NS(=O)(=O)c1ccc(Nc2ncnc3sc4c(c23)CCCC4)cc1 [Compound 4ai, N-carbamimidoyl-4-((5,6,7,8-tetrahydrobenzo[4,5]thieno[2,3-d]pyrimidin-4-yl)amino) benzenesulfonamide]	–	–	–	–	35.8 ± 1.2	12.79	458 ± 12.3	132 ± 4.3	40.2 ± 2.7	11.40
O=S(=O)(Nc1ncccn1)c1ccc(Nc2ncnc3sc4c(c23)CCCC4)cc1 [Compound 4aii, N-(pyrimidin-2-yl)-4-((5,6,7,8-tetrahydrobenzo[4,5]thieno[2,3-d]pyrimidin-4-yl)amino)benzenesulfonamide]	–	–	–	–	22.3 ± 3.1	–	> 1000	119 ± 5.6	20.2 ± 1.5	–
Cc1cc(NS(=O)(=O)c2ccc(Nc3ncnc4sc5c(c34)CCCC5)cc2)no1 [Compound 4aiii, N-(5-methylisoxazol-3-yl)-4-((5,6,7,8-tetrahydrobenzo[4,5]thieno[2,3-d]pyrimidin-4-yl)amino)benzenesulfonamide]	–	–	–	–	67.1 ± 15.7	1.32	88.5 ± 10.1	159 ± 5.3	68.3 ± 4.6	1.29
CCOC(=O)c1sc2ncnc(Nc3ccc(S(=O)(=O)NC(=N)N)cc3)c2c1C [Compound 4bi, Ethyl-4-((4-(N-carbamimidoylsulfamoyl)phenyl)amino)-5-methylthieno[2,3-d]pyrimidine-6-carboxylate]	–	–	–	6.17 ± 1.3	< 10	44.86	277 ± 7.9	326 ± 7.4	8.68 ± 4.3	31.90
CCOC(=O)c1sc2ncnc(Nc3ccc(S(=O)(=O)Nc4ncccn4)cc3)c2c1C [Compound 4bii, Ethyl-5-methyl-4-((4-(N-(pyrimidin-2-yl)sulfamoyl)phenyl)amino)thieno[2,3-d]pyrimidine-6-carboxylate]	–	–	–	–	14 ± 8.2	16.45	230 ± 24.1	289 ± 12	15.57 ± 0.1	14.77
CCOC(=O)c1sc2ncnc(Nc3ccc(S(=O)(=O)Nc4cc(C)on4)cc3)c2c1C [Compound 4biii, Ethyl-5-methyl-4-((4-(N-(5-methylisoxazol-3-yl)sulfamoyl)phenyl)amino) thieno[2,3-d]pyrimidine-6-carboxylate]	–	–	–	9.54 ± 3.1	< 10	25.62	244.5 ± 1.9	168 ± 8.3	17.6 ± 2.3	13.86
COc1cccc2c1C(=O)c1c(O)c3c(c(O)c1C2=O)C[C@@](O)(C(=O)CO)C[C@@H]3O[C@H]1C[C@H](N)[C@H](O)[C@H](C)O1 [Doxorubicin, reference compound]	–	–	–	–	1.6 ± 2.2	–	–	–	2.2 ± 0.3	–
